# Laboratory results from patent publication US8637040B2, “Genus-wide chlamydial peptide vaccine antigens” (priority 2008, dated 2014).
# How the values were obtained:
# Pep4, Pep7, Pep8, Pep10 = assay: Cross-reactivity between peptides in ELISA; format: binding; conditions: sera of mice immunized with a single peptide
# Method: (§1) Blood was collected prior to immunizations and prior to the two boosts. Sera were tested in ELISA. The ELISA method used in the present examples, in which many if not all the parameters and conditions may be varied or modified in ways that are completely conventional in the art, is described below. • 1. 96 well plates (Immulon HBX4) were coated with 50 μl of diluted antigen (peptides at 1 μg/well made in carbonate buffer) and incubated overnight at 4° C. • 2. Unbound antigen was removed by flicking the contents of the plate into a sink without further washing. • 3. Non-specific binding was blocked or prevented by adding 300 μL/well of 4% BSA/PBS-Tween 20 (0.05%). This was allowed to incubate for 2 hour at room temperature. • 4. The plates were washed once with PBS-Tween 20 (0.05%) and 50 μl of primary antibody was added per well at appropriate dilutions. When using serum, the starting dilution was 1:40 and was further diluted by doublings to 1:80, 1:160, and 1:320 (or higher as desired). Plates were incubated for 1 hour at 37° C. • 5. Plates were washed three times with PBS-Tween (0.05%) as above and 100 μl of secondary antibody was added per well at appropriate dilutions. For alkaline phosphatase-conjugated goat anti-mouse IgG-AP, a dilution of 1:500 was used here. Plates were incubated for 1 hour at 37° C. • 6. Plates were again washed three times as above and 200 μl of substrate solution for Alkaline phosphatase (p-nitro phenyl phosphate or pNPP) was added at a concentration of 5 mg/ml. The color reaction was read in an automated microplate reader at a frequency of […] and the absorbance (or optical density) was registered (referred to as A405 or OD405) Several important observations were made in these tests against the 4 peptides: (a) all 4 peptides were immunogenic and induced increasing anti-peptide responses with subsequent boosts in all mice (except in one non-responder) (FIG. 3). […] See also FIG. 16A-16B
# Both of these are category #1 peptides. […] That supports the notion that CDR1 and CDR3 of mAb2 are antigenically distinct.
# [1] = system: C. trachomatis-infected HEp2 cells; assay: Indirect immunofluorescence of immune sera on infected HEp2 cells; format: cell-based, human; conditions: sera 1:40 dilution, FITC anti-mouse IgG
# Source text: Micrographs of HEp2 cells infected with C. trachomatis are immunostained (by indirect immunofluorescence) with sera (1:40 dilution) from mice immunized with the designated peptides (A-E) or soluble. mAb2 (F). FITC anti-mouse IgG was the detecting antibody. Arrows point to distinct differences in targets of the immune sera. Antibodies in panels A-C recognized EB and RB and possibly some matrix material in the inclusion. Antibodies in D-E also recognized targets in the inclusion matrix and inclusion membrane, similar to immune sera raised against the older vaccine candidate, the entire mAb2 (F). 40× original magnification. Samples are counterstained with Evans blue.
# HEp2 cells were infected with C. trachomatis were subjected to cytocentrifugation to deposit them onto microscope slides. After fixation (MeOH) they were stained with sera (1:40 dilution) from mice immunized with the indicated peptides or with soluble mAb2. The binding of the antibodies to the cells was detected using a fluorescent (FITC-labeled) secondary Ab, an anti-mouse IgG. Results appear in FIGS. 9A-F.
# C trachomatis = assay: DFA staining of vaginal smears after challenge of peptide-immunized mice; format: in vivo, mouse; conditions: mice immunized three times at 100 μg doses; days 7 and 14 post-challenge
# Source text: Mice are challenged with a human biovar of C trachomatis (K or E serovars for urogenital infections; C or B serovars for ocular infection).
# Groups of 4-8 mice are “masked” as to pretreatment before challenge with live elementary bodies (EB). At weekly intervals through at least 4 wks, vaginal (or conjunctival) swabs are collected for isolation culture and direct fluorescence antibody staining for EB.
# Using the murine models described above, the present inventors immunized mice with one of the four peptides (Pep4, 7, 8 or 10) administered three times at 100 μg doses. Results of direct fluorescent antibody (DFA) staining are summarized for days 7 and 14 post-challenge in FIGS. 10-11.
# mice = assay: Anti-Pep4 ELISA after SC immunization with free vs. PLA-microencapsulated Pep4; format: in vivo, mouse; conditions: SC x 3; free Pep4 40 μg, Pep4-MP 10, 20 and 40 μg
# Method: FIG. 17A-17F show results in ELISA of sera of mice immunized SC with various doses of the Pep4 as immunogen antigen either as free peptide or encapsulated in PLA microparticles (Pep4-MP). MP's were loaded at levels of between about 7.5 and about 9 μg peptide per mg PLA. Δ-Δ: results of pre-bleeds (before immunization). (▴-▴: results after a single primary immunization. ◯-◯: results after 1st boost. ●-●: results after 2nd boost. ▾-▾: results at the time of terminal bleed (day 28). Each point represents the mean absorbance value (OD405) for the sera of 4 or 5 individual mice of the designated group.
# Additional studies were conducted to evaluate and compare the effects of immunization with the present peptides in free vs. microencapsulated form in PLA microparticles (MPs). Results are shown in FIGS. 17, 18A-18F and 19A-19B.
# Mice were immunized subcutaneously 3 times (primary, 1st first boost at day 14, 2nd boost at day 28) according to a schedule shown below with the indicated peptide antigen or soluble mAb2 polypeptide or were control animals that were infected but not immunized (relevant for FIG. 18A-F). Free Pep4 peptide was tested at the 40 μg dose, whereas Pep4-MP was tested at 10, 20 and 40 μg doses. Blood was collected before each immunization and at the end of the experiment (day +28).
# human sera = assay: ELISA of human serum samples on 4 peptides (Example XI); format: binding
# Method: as §1
# Human sera were tested by PCR for expression of several chlamydial genes, by IHC against C. trachomatis-infected cells and by ELISA against several of the peptides of the present invention. Results are shown in Table 7 (below) which include results from PCR-studies for presence of DNA encoding the chlamydial Major Outer Membrane Protein (MOMP) in human peripheral blood mononuclear cells (PBMC) (which are primarily lymphocytes and monocytes) and cervical swabs
# Also shown is IHC staining of C. trachomatis-infected human HEp2 cells and binding of antibodies in the patient samples to four peptides of the present invention (Pep4, 7, 8, and 10) in ELISA.
sequence,measurement,setting,value
AFPQFRSATLLL [Pep4],cross-reactivity of raised Abs with Pep7 (ELISA),"Pep4, Pep7, Pep8, Pep10",cross reacted
same,structures recognized by immune sera in infected cells,[1],"recognized EB and metabolically active, non-infectious reticulate bodies (RB)"
same,DFA scores,C trachomatis,reduced DFA scores
same,bacterial shedding measured by DFA staining,C trachomatis,reduced bacterial shedding
same,anti-Pep4 antibody responses (ELISA),mice,not as immunogenic as encapsulated Pep4 at equal or lower doses
same,ELISA 1:40 on 4 peptides Scale: 1+-3+,human sera; human serum sample # 1,2
same,ELISA 1:40 on 4 peptides Scale: 1+-3+,human sera; human serum sample # 2,0.75
same,ELISA 1:40 on 4 peptides Scale: 1+-3+,human sera; human serum sample # 3,2.5
same,ELISA 1:40 on 4 peptides Scale: 1+-3+,human sera; human serum sample # 5,2
same,ELISA 1:40 on 4 peptides Scale: 1+-3+,human sera; human serum sample # 7,0.75
same,ELISA 1:40 on 4 peptides Scale: 1+-3+,human sera; human serum sample # 8,3
same,ELISA 1:40 on 4 peptides Scale: 1+-3+,human sera; human serum sample # 9,3
same,ELISA 1:40 on 4 peptides Scale: 1+-3+,human sera; human serum sample # 10,3
same,ELISA 1:40 on 4 peptides Scale: 1+-3+,human sera; human serum sample # 12,2
same,ELISA 1:40 on 4 peptides Scale: 1+-3+,human sera; human serum sample # 13,2
same,ELISA 1:40 on 4 peptides Scale: 1+-3+,human sera; human serum sample # 16,2
same,ELISA 1:40 on 4 peptides Scale: 1+-3+,human sera; human serum sample # 18,2.5
same,ELISA 1:40 on 4 peptides Scale: 1+-3+,human sera; human serum sample # 21,1.5
same,ELISA 1:40 on 4 peptides Scale: 1+-3+,human sera; human serum sample # 22,1.5
same,ELISA 1:40 on 4 peptides Scale: 1+-3+,human sera; human serum sample # 23,2
same,ELISA 1:40 on 4 peptides Scale: 1+-3+,human sera; human serum sample # 24,3
same,ELISA 1:40 on 4 peptides Scale: 1+-3+,human sera; human serum sample # 26,2
